Activity calls are given as the source filed them. The calls are words filed in the database; no cut-off is given here.
Key:
[1] = molecular target: 5-hydroxytryptamine receptor 6 (Homo sapiens, UniProt P50406); test: Antagonist activity at human 5HT6 receptor in HEK293 cells assessed as inhibition of serotonin-induced cAMP accumulation pretreated for 15 mins before serotonin challenge measured after 30 mins; type: functional, cell-based
[2] = molecular target: T1, 5-hydroxytryptamine receptor 2B (Homo sapiens, UniProt P41595); test: Agonist activity at human 5HT2B receptor in HEK293 cells assessed as stimulation of intracellular calcium mobilization by Fura-2AM dye based spectrofluorimetry
T1 sequence (P41595 whole entry): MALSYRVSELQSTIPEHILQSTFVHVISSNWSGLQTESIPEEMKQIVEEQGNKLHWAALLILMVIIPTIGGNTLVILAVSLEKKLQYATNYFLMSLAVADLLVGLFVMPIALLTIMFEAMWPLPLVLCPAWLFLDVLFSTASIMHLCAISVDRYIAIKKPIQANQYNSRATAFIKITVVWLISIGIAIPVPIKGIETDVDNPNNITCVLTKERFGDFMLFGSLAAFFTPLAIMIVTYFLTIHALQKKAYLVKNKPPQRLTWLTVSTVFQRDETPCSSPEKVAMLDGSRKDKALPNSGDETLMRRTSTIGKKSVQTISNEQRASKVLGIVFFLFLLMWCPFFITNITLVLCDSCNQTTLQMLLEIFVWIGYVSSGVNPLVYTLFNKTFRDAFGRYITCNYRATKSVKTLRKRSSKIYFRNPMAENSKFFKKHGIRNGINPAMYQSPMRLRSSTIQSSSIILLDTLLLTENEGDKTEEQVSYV

[3] = molecular target: T1, 5-hydroxytryptamine receptor 2B; test: Antagonist activity at human 5HT2B receptor in HEK293 cells assessed as inhibition of alpha-ME-5-HT-induced intracellular calcium mobilization pretreated for 15 secs before alphaME-5-HT addition by Fura-2AM dye based spectrofluorimetry
hERG (KCNH2) = hERG (KCNH2) (Homo sapiens, UniProt Q12809); test: Inhibition of human recombinant ERG at 10 uM by patch clamp assay; settings: recombinant human ERG channel
Sequence of hERG (KCNH2) (Q12809 whole entry): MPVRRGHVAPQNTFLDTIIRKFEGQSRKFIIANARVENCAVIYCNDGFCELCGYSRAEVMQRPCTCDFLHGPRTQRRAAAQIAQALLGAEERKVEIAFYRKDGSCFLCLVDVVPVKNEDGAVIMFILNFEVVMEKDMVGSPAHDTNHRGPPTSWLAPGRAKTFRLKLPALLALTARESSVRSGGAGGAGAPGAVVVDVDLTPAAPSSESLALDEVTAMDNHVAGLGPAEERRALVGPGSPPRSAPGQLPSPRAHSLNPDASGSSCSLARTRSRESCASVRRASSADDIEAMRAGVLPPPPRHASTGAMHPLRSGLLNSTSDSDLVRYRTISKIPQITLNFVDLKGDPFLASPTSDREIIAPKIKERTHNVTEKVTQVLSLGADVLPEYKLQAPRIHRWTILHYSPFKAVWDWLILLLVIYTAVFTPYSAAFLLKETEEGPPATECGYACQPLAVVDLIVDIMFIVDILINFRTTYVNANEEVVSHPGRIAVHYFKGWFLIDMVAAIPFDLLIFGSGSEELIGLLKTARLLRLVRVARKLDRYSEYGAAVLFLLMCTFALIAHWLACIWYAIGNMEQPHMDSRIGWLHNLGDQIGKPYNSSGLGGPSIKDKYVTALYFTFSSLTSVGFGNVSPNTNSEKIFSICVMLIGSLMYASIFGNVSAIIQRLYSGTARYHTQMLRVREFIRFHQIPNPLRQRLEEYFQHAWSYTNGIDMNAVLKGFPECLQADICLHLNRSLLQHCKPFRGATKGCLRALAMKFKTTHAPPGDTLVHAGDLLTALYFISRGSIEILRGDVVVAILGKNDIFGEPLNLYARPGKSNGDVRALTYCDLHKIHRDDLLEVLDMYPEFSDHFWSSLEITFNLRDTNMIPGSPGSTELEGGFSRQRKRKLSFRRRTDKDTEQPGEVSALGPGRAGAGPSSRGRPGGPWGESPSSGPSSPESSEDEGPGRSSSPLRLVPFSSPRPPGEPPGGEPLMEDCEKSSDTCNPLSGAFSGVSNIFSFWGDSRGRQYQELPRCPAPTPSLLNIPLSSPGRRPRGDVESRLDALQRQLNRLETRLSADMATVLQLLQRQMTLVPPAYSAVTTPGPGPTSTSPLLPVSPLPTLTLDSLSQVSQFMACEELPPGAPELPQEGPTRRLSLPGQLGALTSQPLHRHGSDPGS

Sequence of 5-hydroxytryptamine receptor 6 (P50406 whole entry): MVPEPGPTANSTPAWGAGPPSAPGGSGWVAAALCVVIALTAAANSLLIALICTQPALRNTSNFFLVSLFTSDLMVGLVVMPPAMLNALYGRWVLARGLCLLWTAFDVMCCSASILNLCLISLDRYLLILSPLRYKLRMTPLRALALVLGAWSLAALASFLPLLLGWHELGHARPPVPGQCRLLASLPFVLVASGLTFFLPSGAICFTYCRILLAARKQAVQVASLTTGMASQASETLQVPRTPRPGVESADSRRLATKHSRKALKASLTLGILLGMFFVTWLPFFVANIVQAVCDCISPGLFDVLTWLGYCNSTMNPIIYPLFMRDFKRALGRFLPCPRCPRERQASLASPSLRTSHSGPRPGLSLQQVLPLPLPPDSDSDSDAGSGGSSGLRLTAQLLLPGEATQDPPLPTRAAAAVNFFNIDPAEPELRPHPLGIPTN

SMILES | IC50 [1] [nM] | Activity [2] | IC50 [3] [nM] | inhibition at 10 µM (hERG (KCNH2)) [%]
CSc1nn2c(C)c3c(nc2c1S(=O)(=O)c1ccccc1)CCCC3 |  | inactive | 127 | 25
CSc1nn2c3c(c(C)nc2c1S(=O)(=O)c1ccccc1)CCCC3 | 16.8 | inactive | 161 | 
CSc1nn2c3c(cnc2c1S(=O)(=O)c1ccccc1)CCC3 | 6 | inactive | 118 | 

Continued by falling IC50 [1], values first:

IC50 [1] [nM] | Activity [2] | IC50 [3] [nM] | SMILES | inhibition at 10 µM (hERG (KCNH2)) [%]
98.5 |  |  | CSc1nn2cc3c(nc2c1S(=O)(=O)c1ccccc1)CCCC3 | 
7.5 | inactive | 411 | CSc1nn2c3c(cnc2c1S(=O)(=O)c1ccccc1)CCCC3 | 

From ChEMBL document CHEMBL1156328, “Synthesis of cycloalkane-annelated 3-phenylsulfonyl-pyrazolo[1,5-a]pyrimidines and their evaluation as 5-HT6 receptor antagonists” (Bioorg Med Chem Lett, 2010)
